Reference: PubChem BioAssay AID1259407 (Chemical Carcinogenesis Research Information System (CCRIS), 2018)
Activity calls are given as the source filed them. No rule for the calls is given here.

System: CCRIS mutagenicity, Ames/micronucleus/aberration tests
Experiment: CCRIS mutagenicity studies
[1] = Test System: AMES SALMONELLA TYPHIMURIUM, Strain/Indicator: TA98, Metabolic Activation: NONE, Method: PREINCUBATION
[2] = Test System: AMES SALMONELLA TYPHIMURIUM, Strain/Indicator: TA98, Metabolic Activation: NONE, Method: STANDARD PLATE
[3] = Test System: AMES SALMONELLA TYPHIMURIUM, Strain/Indicator: TA100, Metabolic Activation: RAT, LIVER, S-9, AROCLOR 1254, Method: STANDARD PLATE
[4] = Test System: AMES SALMONELLA TYPHIMURIUM, Strain/Indicator: TA1538, Metabolic Activation: NONE, Method: STANDARD PLATE

Measured: mutagenic call

C/C=C/C=C/C=O
active: Test System: AMES SALMONELLA TYPHIMURIUM, Strain/Indicator: TA100, Metabolic Activation: HAMSTER LIVER S-9, AROCLOR 1254 (5%), Method: PREINCUBATION active; positive | Test System: AMES SALMONELLA TYPHIMURIUM, Strain/Indicator: TA100, Metabolic Activation: HAMSTER LIVER S-9, AROCLOR 1254 (10%), Method: PREINCUBATION active; positive | Test System: AMES SALMONELLA TYPHIMURIUM, Strain/Indicator: TA100, Metabolic Activation: NONE, Method: PREINCUBATION (THREEFOLD CELL DENSITY) active; positive | Test System: AMES SALMONELLA TYPHIMURIUM, Strain/Indicator: TA100, Metabolic Activation: RAT LIVER S-9, AROCLOR 1254 (5%), Method: PREINCUBATION active; positive | Test System: AMES SALMONELLA TYPHIMURIUM, Strain/Indicator: TA100, Metabolic Activation: RAT LIVER S-9, AROCLOR 1254 (10%), Method: PREINCUBATION active; positive | Test System: AMES SALMONELLA TYPHIMURIUM, Strain/Indicator: TA100, Metabolic Activation: RAT, LIVER, S-9, AROCLOR 1254, Method: PREINCUBATION active; positive | Test System: AMES SALMONELLA TYPHIMURIUM, Strain/Indicator: TA100, Metabolic Activation: RAT, LIVER, S-9, AROCLOR 1254, Method: PREINCUBATION (THREEFOLD CELL DENSITY) active; positive | Test System: AMES SALMONELLA TYPHIMURIUM, Strain/Indicator: TA104, Metabolic Activation: NONE, Method: PREINCUBATION active; positive | Test System: MOUSE LYMPHOMA, Strain/Indicator: L5178Y (TK+/TK-), Metabolic Activation: NONE, Method: SUSPENSION/PLATE active; positive. reevaluation of results: positive
inactive: Test System: AMES SALMONELLA TYPHIMURIUM, Strain/Indicator: TA98, Metabolic Activation: HAMSTER LIVER S-9, AROCLOR 1254 (30%), Method: PREINCUBATION inactive; negative | Test System: AMES SALMONELLA TYPHIMURIUM, Strain/Indicator: TA98, Metabolic Activation: HAMSTER, LIVER, S-9, AROCLOR 1254, Method: STANDARD PLATE inactive; negative | [1] inactive; negative | [2] inactive; negative | Test System: AMES SALMONELLA TYPHIMURIUM, Strain/Indicator: TA98, Metabolic Activation: RAT LIVER S-9, AROCLOR 1254 (30%), Method: PREINCUBATION inactive; negative | Test System: AMES SALMONELLA TYPHIMURIUM, Strain/Indicator: TA98, Metabolic Activation: RAT, LIVER, S-9, AROCLOR 1254, Method: STANDARD PLATE inactive; negative | Test System: AMES SALMONELLA TYPHIMURIUM, Strain/Indicator: TA100, Metabolic Activation: HAMSTER, LIVER, S-9, AROCLOR 1254, Method: STANDARD PLATE inactive; negative | Test System: AMES SALMONELLA TYPHIMURIUM, Strain/Indicator: TA100, Metabolic Activation: NONE, Method: STANDARD PLATE inactive; negative | [3] inactive; negative | Test System: AMES SALMONELLA TYPHIMURIUM, Strain/Indicator: TA1535, Metabolic Activation: HAMSTER LIVER S-9, AROCLOR 1254 (30%), Method: PREINCUBATION inactive; negative | Test System: AMES SALMONELLA TYPHIMURIUM, Strain/Indicator: TA1535, Metabolic Activation: HAMSTER, LIVER, S-9, AROCLOR 1254, Method: STANDARD PLATE inactive; negative | Test System: AMES SALMONELLA TYPHIMURIUM, Strain/Indicator: TA1535, Metabolic Activation: NONE, Method: PREINCUBATION inactive; negative | Test System: AMES SALMONELLA TYPHIMURIUM, Strain/Indicator: TA1535, Metabolic Activation: NONE, Method: STANDARD PLATE inactive; negative | Test System: AMES SALMONELLA TYPHIMURIUM, Strain/Indicator: TA1535, Metabolic Activation: RAT LIVER S-9, AROCLOR 1254 (30%), Method: PREINCUBATION inactive; negative | Test System: AMES SALMONELLA TYPHIMURIUM, Strain/Indicator: TA1535, Metabolic Activation: RAT, LIVER, S-9, AROCLOR 1254, Method: STANDARD PLATE inactive; negative | Test System: AMES SALMONELLA TYPHIMURIUM, Strain/Indicator: TA1537, Metabolic Activation: HAMSTER, LIVER, S-9, AROCLOR 1254, Method: STANDARD PLATE inactive; negative | Test System: AMES SALMONELLA TYPHIMURIUM, Strain/Indicator: TA1537, Metabolic Activation: NONE, Method: STANDARD PLATE inactive; negative | Test System: AMES SALMONELLA TYPHIMURIUM, Strain/Indicator: TA1537, Metabolic Activation: RAT, LIVER, S-9, AROCLOR 1254, Method: STANDARD PLATE inactive; negative | Test System: AMES SALMONELLA TYPHIMURIUM, Strain/Indicator: TA1538, Metabolic Activation: HAMSTER, LIVER, S-9, AROCLOR 1254, Method: STANDARD PLATE inactive; negative | [4] inactive; negative | Test System: AMES SALMONELLA TYPHIMURIUM, Strain/Indicator: TA1538, Metabolic Activation: RAT, LIVER, S-9, AROCLOR 1254, Method: STANDARD PLATE inactive; negative | Test System: MOUSE LYMPHOMA, Strain/Indicator: L5178Y (TK+/TK-), Metabolic Activation: RAT, LIVER, S-9, AROCLOR 1254, Method: SUSPENSION/PLATE inactive; negative. reevaluation of results: negative

Nc1c(O)cc(Cc2cc(Cl)c(N)c(OS(=O)(=O)O)c2)cc1Cl
inactive: Test System: AMES SALMONELLA TYPHIMURIUM, Strain/Indicator: TA1538, Metabolic Activation: NONE, Method: PREINCUBATION inactive; negative | [4] inactive; negative

O=C(O)C(Cl)Br (configuration not stated)
active: Test System: AMES SALMONELLA TYPHIMURIUM, Strain/Indicator: TA100, Metabolic Activation: NONE, Method: PREINCUBATION active; positive | Test System: AMES SALMONELLA TYPHIMURIUM, Strain/Indicator: TA100, Metabolic Activation: RAT, LIVER, S-9, PHENOBARBITAL AND 5,6-BENZOFLAVONE, Method: PREINCUBATION active; positive | Test System: Ames Salmonella typhimurium, Strain/Indicator: TA100, Metabolic Activation: Hamster, Liver, S9, Aroclor 1254 (30%), Method: Preincubation active; positive | Test System: Ames Salmonella typhimurium, Strain/Indicator: TA100, Metabolic Activation: Rat, Liver, S9, Aroclor 1254 (10%), Method: Preincubation active; positive | Test System: Ames Salmonella typhimurium, Strain/Indicator: TA100, Metabolic Activation: Rat, Liver, S9, Aroclor 1254 (30%), Method: Preincubation active; positive
inactive: End Point: In vivo micronucleus, Test System: Peripheral blood normochromatic erythrocytes, Species: Mouse, Strain/Sex: B6C3F1/Female, Route: Oral inactive; negative | End Point: In vivo micronucleus, Test System: Peripheral blood normochromatic erythrocytes, Species: Mouse, Strain/Sex: B6C3F1/Male, Route: Oral inactive; negative | [1] inactive; negative | Test System: AMES SALMONELLA TYPHIMURIUM, Strain/Indicator: TA98, Metabolic Activation: RAT, LIVER, S-9, PHENOBARBITAL AND 5,6-BENZOFLAVONE, Method: PREINCUBATION inactive; negative | Test System: Ames Salmonella typhimurium, Strain/Indicator: TA98, Metabolic Activation: Hamster, Liver, S9, Aroclor 1254, Method: Preincubation inactive; negative | Test System: Ames Salmonella typhimurium, Strain/Indicator: TA98, Metabolic Activation: None, Method: Preincubation inactive; negative | Test System: Ames Salmonella typhimurium, Strain/Indicator: TA98, Metabolic Activation: Rat, Liver, S9, Aroclor 1254, Method: Preincubation inactive; negative | Test System: E. coli, Strain/Indicator: WP2 uvrA/pKM101, Metabolic Activation: None, Method: Preincubation inactive; negative | Test System: E. coli, Strain/Indicator: WP2 uvrA/pKM101, Metabolic Activation: Rat, Liver, S9, Aroclor 1254 (10%), Method: Preincubation inactive; negative

ONc1ncnc2nc[nH]c12
active: Test System: AMES SALMONELLA TYPHIMURIUM, Strain/Indicator: HISG46, Metabolic Activation: NONE, Method: STANDARD PLATE active; positive | Test System: AMES SALMONELLA TYPHIMURIUM, Strain/Indicator: TA97, Metabolic Activation: NONE, Method: STANDARD PLATE active; positive | Test System: AMES SALMONELLA TYPHIMURIUM, Strain/Indicator: TA100(TN5-1,8-DNP1011), Metabolic Activation: NONE, Method: STANDARD PLATE active; positive | Test System: AMES SALMONELLA TYPHIMURIUM, Strain/Indicator: TA100(TN5-1,8-DNP1012), Metabolic Activation: NONE, Method: STANDARD PLATE active; positive | Test System: AMES SALMONELLA TYPHIMURIUM, Strain/Indicator: TA1950, Metabolic Activation: NONE, Method: STANDARD PLATE active; positive | Test System: E.COLI, Strain/Indicator: CM871, Metabolic Activation: NONE, Method: STANDARD PLATE active; positive | Test System: E.COLI, Strain/Indicator: WP2, Metabolic Activation: NONE, Method: STANDARD PLATE active; positive
inactive: Test System: AMES SALMONELLA TYPHIMURIUM, Strain/Indicator: TA97, Metabolic Activation: RAT, LIVER, S-9, AROCLOR 1254, Method: STANDARD PLATE inactive; negative | [2] inactive; negative | [3] inactive; negative
